Data on one compound can be found in patent US20060223876A1, “Indoloquinone Tumor Radiation Sensitization” (priority 2005, published 2006).

Like-named read-outs stand apart in the source and are kept apart here.

For test [1], the system named is U-87 human glioblastoma cells. The protocol:
U-87 human glioblastoma cells (American Type Culture Collection) were maintained in alpha MEM medium (Sigma) with 10% fetal bovine serum (Atlanta Biologicals). A U-87 cell suspension was injected subcutaneously into the right hind limb (5×10^5 cells in 100 μl PBS) of athymic NCR NUM mice (Taconic Farms) and allowed to grow to a hypoxic volume of ˜550 mm^3 before treatment. Tumors were treated with EO9 and a fractionated radiation therapy schedule to test the hypothesis that EO9 would sensitize tumor cells to radiation therapy. EO9 or vehicle was administered 30 minutes after each radiation therapy fraction on day 1, 2, and 3. The study used 4 treatment groups: vehicle (DMSO), radiation therapy alone (3 days×7.5 Gy), EO9 (3 days×2 mg/kg), and EO9 +radiation therapy (3 days×7.5 Gy×2 mg/kg). EO9 was administered locally by intra-tumoral injection to achieve optimal delivery.
Irradiations were performed on anesthetized mice using an X-ray machine (Pantak) operating at 250 kV, 10 mA, with a 2-mm aluminum filtration. The effective photon energy was 90 keV. Mice were anesthetized with a combination of Ketamine and Acepromazine at a concentration of 75 mg/kg and 0.30 mg/kg respectively. Each mouse was confined in a lead casing with its tumor-bearing leg extended through an opening on the side to allow the tumor to be irradiated locally.
Mixed-effects regression was used to model the base-10 logarithm of tumor volume as a function of time and treatment (tumor growth analyses). The log-transformed outcome was used because tumors of this size grow approximately exponentially, and therefore the logarithm of the tumor volume is approximately linear over time. This approach appropriately handles unbalanced data, such as a different number of measurements for different animals, and takes into account the correlation of each animal's measurements over time. These analyses were carried out with SAS 8.2 (SAS Institute Inc., Cary, N.C., 1999-2001).

For test [2], the system named is U-87 human glioblastoma cells. As to the kind of experiment: Long term study: EO9 and radiation therapy two non-consecutive days a week for 3 weeks, U-87 tumor xenograft growth. It is filed as in vivo, athymic NCR NUM mice. The settings on record: for % Δ: average rate of increase of tumor volume / T2x: average doubling time of tumor volume: 2 days a week for 3 weeks. How it is done: The effective photon energy was 90 keV.
A protocol was investigated where EO9 and radiation therapy were administered over a longer period of time. In this study, EO9 or radiation therapy was delivered alone or in combination on two non-consecutive days a week for 3 weeks. Six groups received vehicle alone (DMSO), vehicle 30 minutes before radiation therapy (2 days×7.5 Gy), vehicle 30 minutes after radiation therapy (2 days×7.5 Gy), E09 only (2 days×3 mg/kg), EO9 […], and EO9 30 minutes after radiation therapy.

Where [3] appears, read: EO9 + radiation therapy (3 days x 7.5 Gy x 2 mg/kg), EO9 30 minutes after each fraction.
Where [4] appears, read: EO9 3 mg/kg 30 minutes after radiation therapy (7.5 Gy).
Where [5] appears, read: EO9 3 mg/kg before radiation therapy (7.5 Gy).
Setting [6] is: EO9 only, 3 mg/kg intra-tumoral.

On to `Cn1c(/C=C/CO)c(CO)c2c1C(=O)C=C(N1CC1)C2=O` [EO9, 3-hydroxymethyl-5-aziridinyl-1-methyl-2-(1 H-indole-4,7-dione)-prop-β-en-α-ol], for which the “nature of the combination effect of EO9 and radiation therapy” value in test [1] (EO9 + radiation therapy) is given as “additive”. Moreover, the “Estimated Time (Days) for tumors to reach 2000 mm^3” value in test [1] (setting [3]) is 20.8 days; in test [1] (EO9 alone, 3 days x 2 mg/kg intra-tumoral), 8.6 days. Also, the “T2x: average doubling time of tumor volume” value in test [1] (setting [3]) is reported as 11.7 days; in test [2] (setting [4]), 9.1 days; in test [2] (setting [5]), 17.3 days; in test [2] (setting [6]), 6.1 days. The “% Δ (95% CI): average rate of increase of tumor volume” value in test [1] (EO9 + radiation therapy (3 days x 7.5 Gy x 2 mg/kg), EO9 intra-tumoral 30 minutes after each fraction) is recorded as 6 (4, 8) % daily increase; in test [1] (EO9 alone, 3 days x 2 mg/kg intra-tumoral, tumors ~550 mm^3) it was 16 (14, 19) % daily increase. In test [1] (EO9 alone, 3 days x 2 mg/kg), the “increase of tumor doubling time vs. control” value amounted to 1.4 days. The “rate of tumor growth compared with the other groups” value in test [1] (EO9 and radiation therapy) was “slowest rate of tumor growth”. Also, the “increase of mean tumor doubling time vs. control” value in test [1] (combination of EO9 and radiation therapy) came out at 8.5 days. Also, the “% Δ: average rate of increase of tumor volume” value in test [2] (setting [4]) is listed as 8 % daily increase; in test [2] (setting [5]) it was 4 % daily increase; in test [2] (setting [6]), 12 % daily increase. Moreover, in test [2] (EO9 administered before radiation therapy), the “effectiveness of dosing schedule” value is “most effective dosing schedule”. In addition, in test [2] (groups receiving EO9 before or after radiation therapy combined into a single group (FIG. 8)), the “rate of tumor volume growth compared with the other groups” value is “slowest rate of tumor volume growth”.
